Reference: US20030211942A1, “Aryl sulfonyl amino carbonyl triazole based selective herbicides” (priority 2000, published 2003)

Key:
Experiment in all cases: Post-emergence/greenhouse herbicidal test
Format in all cases: in vivo
[1] = system: Setaria viridis; conditions: application rate 4 g ai/ha; iodosulfuron tested as Hussar (iodosulfuron 5% & mefenpyr 15%)
[2] = system: Avena fatua
From the text: (§1) Procarbazone- and flucarbazone-sodium were used as 70 WG formulation. Fenoxaprop-P-ethyl was used in a mixture with mefenpyr-diethyl (75 g of mefenpyr-diethyl/l) as Ralon® Super 69 EW. Cinidon-ethyl and florasulam and iodosufuron in a mixture with mefenpyr-diethyl were used in the form of the finished formulations Lotus® 200 EC, Primus® 50 SC and Hussar® 5 WG (15% mefenpyr-diethyl), respectively. Amicarbazone was used as 70 WG formulation.
(§2) In pre- and post-emergence experiments, the spray liquor is usually admixed with a surfactant (Renex 36), at a concentration of 0.1%.
(§3) Test plants are grown under controlled conditions (temperature and light).
(§4) Following the spray application, the plant containers are kept in a greenhouse under constant light and temperature conditions.
(§5) After about 3 weeks, the degree of damage to the plants is rated in % damage in comparison to the development of the untreated control.
(§6) 0% =no damage (like untreated control)
(§7) 100% =total destruction/damage

[3] = system: Echinochloa crus-galli
From the text: as §1, §2, §3, §4, §5, §6, §7

[4] = system: Bromus secalinus
From the text: as §1, §2, §3, §4, §5, §6, §7

[5] = system: Polygonum convolvolus
From the text: as §1, §2, §3, §4, §5, §6, §7

[6] = system: Cassia tora
From the text: as §1, §2, §3, §4, §5, §6, §7

[7] = system: Veronica persicaria; conditions: post-emergence, about 3 weeks
From the text: as §1, §2, §3, §4, §5, §6, §7

[8] = system: Galium aparine; conditions: post-emergence, about 3 weeks
From the text: as §1, §2, §3, §4, §5, §6, §7

[9] = system: Viola arvensis; conditions: post-emergence, about 3 weeks
From the text: as §1, §2, §3, §4, §5, §6, §7

[10] = system: Amaranthus retroflexus; conditions: post-emergence, about 3 weeks
From the text: as §1, §2, §3, §4, §5, §6, §7

[11] = system: Matricaria inodora; conditions: 2 g of ai/ha, post-emergence, about 3 weeks
From the text: as §1, §2, §3, §4, §5, §6, §7

[12] = system: Digitaria sanguinalis; conditions: post-emergence, about 3 weeks
From the text: as §1, §2, §3, §4, §5, §6, §7

[13] = system: Abutilon theophrasti; conditions: post-emergence, about 3 weeks
From the text: as §1, §2, §3, §4, §5, §6, §7

[14] = system: Xanthium strumarium; conditions: post-emergence, about 3 weeks
From the text: as §1, §2, §3, §4, §5, §6, §7

[15] = system: Lolium perenne; conditions: post-emergence, about 3 weeks
From the text: as §1, §2, §3, §4, §5, §6, §7

[16] = system: Alopecurus myosuroides; conditions: post-emergence, about 3 weeks
From the text: as §1, §2, §3, §4, §5, §6, §7

[17] = system: Cyperus esculentus; conditions: post-emergence, about 3 weeks
From the text: as §1, §2, §3, §4, §5, §6, §7

[18] = system: Eriochloa villosa; conditions: 15 g of ai/ha, post-emergence, about 3 weeks
From the text: as §1, §2, §3, §4, §5, §6, §7

[19] = 8 g of ai/ha, post-emergence, about 3 weeks
[20] = application rate 2 g ai/ha, iodosulfuron tested as Hussar (iodosulfuron 5% & mefenpyr 15%)
[21] = application rate 8 g ai/ha, iodosulfuron tested as Hussar (iodosulfuron 5% & mefenpyr 15%)
[22] = 2 g of ai/ha, post-emergence, about 3 weeks
[23] = 4 g of ai/ha, post-emergence, about 3 weeks
[24] = 15 g of ai/ha, post-emergence, about 3 weeks

COC(=O)c1ccc(I)cc1S(=O)(=O)NC(=O)Nc1nc(C)nc(OC)n1.[Na] [Iodosufuron, N-(4-methoxy-6-methyl-1,3,5-triazin-2-yl)-N′-(5-iodo-2-methoxycarbonyl-phenylsulphonyl)-urea sodium salt]
Setaria viridis observed [1]: 0
Avena fatua observed [2, 19]: 70%
Avena fatua observed ([2]; Table B-62, application rate 2 g ai/ha, iodosulfuron tested as Hussar (iodosulfuron 5% & mefenpyr 15%)): 10
Echinochloa crus-galli observed [3, 20]: 20
Bromus secalinus observed [4, 20]: 0
Bromus secalinus observed ([4]; application rate 4 g ai/ha, iodosulfuron tested as Hussar (iodosulfuron 5% & mefenpyr 15%)): 0
Bromus secalinus observed [4, 21]: 0
Polygonum convolvolus observed [5, 20]: 80
Cassia tora observed [6, 21]: 80

COc1ncc(F)c2nc(S(=O)(=O)Nc3c(F)cccc3F)nn12 [Florasulam, N-(2,6-difluoro-phenyl)-8-fluoro-5-methoxy-[1,2,4]-triazolo-[1,5-c]-pyrimidine-2-sulphonamide]
Veronica persicaria observed ([7]; 2 g of ai/ha): 0%
Veronica persicaria observed ([7]; 4 g of ai/ha): 0%
Avena fatua observed [2, 22]: 0%
Avena fatua observed [2, 23]: 10%
Avena fatua observed [2, 19]: 30%
Avena fatua observed [2, 24]: 50%
Galium aparine observed ([8]; 2 g of ai/ha): 50%
Galium aparine observed ([8]; 4 g of ai/ha): 50%
Echinochloa crus-galli observed [3, 22]: 10%
Echinochloa crus-galli observed [3, 23]: 40%
Viola arvensis observed ([9]; 2 g of ai/ha): 0%
Viola arvensis observed ([9]; 4 g of ai/ha): 0%
Viola arvensis observed ([9]; 8 g of ai/ha): 70%
Amaranthus retroflexus observed ([10]; 2 g of ai/ha): 70%
Amaranthus retroflexus observed ([10]; 4 g of ai/ha): 70%
Matricaria inodora observed [11]: 70%
Bromus secalinus observed [4, 22]: 0%
Bromus secalinus observed [4, 23]: 0%
Digitaria sanguinalis observed ([12]; 2 g of ai/ha): 0%
Digitaria sanguinalis observed ([12]; 4 g of ai/ha): 0%
Abutilon theophrasti observed ([13]; 2 g of ai/ha): 20%
Abutilon theophrasti observed ([13]; 4 g of ai/ha): 30%
Xanthium strumarium observed ([14]; 2 g of ai/ha): 40%
Xanthium strumarium observed ([14]; 4 g of ai/ha): 50%
Lolium perenne observed ([15]; 2 g of ai/ha): 0%
Lolium perenne observed ([15]; 4 g of ai/ha): 0%
Lolium perenne observed ([15]; 8 g of ai/ha): 20%
Lolium perenne observed ([15]; 15 g of ai/ha): 30%
Polygonum convolvolus observed [5, 19]: 95%
Polygonum convolvolus observed [5, 24]: 95%
Cassia tora observed [6, 19]: 90%
Cassia tora observed [6, 24]: 95%
Alopecurus myosuroides observed ([16]; 2 g of ai/ha): 0%
Alopecurus myosuroides observed ([16]; 4 g of ai/ha): 0%

CCOC(=O)C(Cl)=Cc1cc(N2C(=O)C3=C(CCCC3)C2=O)ccc1Cl [Cinidon-ethyl, ethyl 2-chloro-3-[2-chloro-5-(1,3,4,5,6,7-hexahydro-1,3-dioxo-2H-isoindol-2-yl)-phenyl]-2-propanoate]
Cyperus esculentus observed ([17]; 8 g of ai/ha): 0%
Cyperus esculentus observed ([17]; 15 g of ai/ha): 20%
Avena fatua observed [2, 19]: 0%
Avena fatua observed [2, 24]: 10%
Eriochloa villosa observed [18]: 30%
Echinochloa crus-galli observed [3, 19]: 0%
Echinochloa crus-galli observed [3, 24]: 0%
Viola arvensis observed ([9]; 8 g of ai/ha): 0%
Viola arvensis observed ([9]; 15 g of ai/ha): 30%
Bromus secalinus observed [4, 19]: 0%
Bromus secalinus observed [4, 24]: 20%
Lolium perenne observed ([15]; 8 g of ai/ha): 0%
Cassia tora observed [6, 24]: 95%
Alopecurus myosuroides observed ([16]; 8 g of ai/ha): 0%
Alopecurus myosuroides observed ([16]; 15 g of ai/ha): 0%
